Experimental data published in patent US20100267561A1, “HERBICIDAL PYRIDAZINONE DERIVATIVES” (priority 2007, published 2010).

What was measured:
Assay in all cases: Test E pre-/postemergence plant response
Format in all cases: in vivo
[1] = system: dallisgrass (Paspalum dilatatum); settings: scale 0 to 100
Description: (§1) Seeds of plant species selected from bermudagrass (Cynodon dactylon), Surinam grass (Brachiaria decumbens), large crabgrass (Digitaria sanguinalis), green foxtail (Setaria viridis), goosegrass (Eleusine indica), johnsongrass (Sorghum halepense), kochia (Kochia scoparia), pitted morningglory (Ipomoea lacunosa), purple nutsedge (Cyperus rotundus), common ragweed (Ambrosia elation), black mustard (Brassica nigra), guineagrass (Panicum maximum), dallisgrass (Paspalum dilatatum), barnyardgrass (Echinochloa crus-galli), southern (S.) sandbur (Cenchrus echinatus), common sowthistle (Sonchus oleraceous), prickly sida (Sida spinosa), Italian ryegrass (Lolium multiflorum), common purslane (Portulaca oleracea), broadleaf signalgrass (Brachiaria platyphylla), common groundsel (Senecio vulgaris), common chickweed (Stellaria media), Virginia (V.) dayflower (Commelina virginica), tropical (T.) spiderwort (Commelina benghalensis), annual bluegrass (Poa annua), naked crabgrass (Digitaria nuda), itchgrass (Rottboellia cochinchinensis), quackgrass (Elytrigia repens), Canada horseweed (Conyza canadensis), field bindweed (Convolvulus arvensis), spanishneedles (Bidens bipinnata), common mallow (Malva sylvestris) and Russian thistle (Salsola kali) were planted and treated preemergence with test chemicals formulated in a non-phytotoxic solvent mixture which included a surfactant. At the same time, plants selected from these weed species were treated with postemergence applications of some of the test chemicals formulated in the same manner. Plants ranged in height from 2 to 18 cm (1- to 4-leaf stage) for postemergence treatments.
(§2) Treated plants and controls were maintained in a greenhouse for 14 to 21 days, after which time all species were compared to controls and visually evaluated. Plant response ratings, summarized in Table E, are based on a scale of 0 to 100 where 0 is no effect and 100 is complete control. A dash (-) response means no test result.

[2] = system: naked crabgrass (Digitaria nuda); settings: scale 0 to 100
Description: as §1, §2

[3] = system: bermudagrass (Cynodon dactylon); settings: scale 0 to 100
Description: as §1, §2

[4] = system: itchgrass (Rottboellia cochinchinensis); settings: scale 0 to 100
Description: as §1, §2

[5] = system: common chickweed (Stellaria media); settings: Postemergence, scale 0 to 100
Description: as §1, §2

[6] = system: broadleaf signalgrass (Brachiaria platyphylla); settings: scale 0 to 100
Description: as §1, §2

[7] = system: green foxtail (Setaria viridis); settings: scale 0 to 100
Description: as §1, §2

[8] = system: barnyardgrass (Echinochloa crus-galli); settings: scale 0 to 100
Description: as §1, §2

[9] = system: johnsongrass (Sorghum halepense); settings: scale 0 to 100
Description: as §1, §2

[10] = system: annual bluegrass (Poa annua); settings: scale 0 to 100
Description: as §1, §2

[11] = system: common mallow (Malva sylvestris); settings: scale 0 to 100
Description: as §1, §2

With Cc1cc(-c2ccc(Cl)cc2)nn1-c1c(OS(C)(=O)=O)cnn(C)c1=O [Compound 36] the “Plant response rating, Dallisgrass” value ([1]; 8 g ai/ha, Preemergence) was 35, the “Plant response rating, Dallisgrass” value ([1]; 16 g ai/ha, Preemergence) was 60 and the “Plant response rating, Dallisgrass” value ([1]; 31 g ai/ha, Preemergence) was 75. For the same compound, the “Plant response rating, Dallisgrass” value ([1]; 62 g ai/ha, Preemergence) was 98, the “Plant response rating, Dallisgrass” value ([1]; Postemergence, 8 g ai/ha) was 0 and the “Plant response rating, Dallisgrass” value ([1]; Postemergence, 16 g ai/ha) was 20. For the same compound, the “Plant response rating, Dallisgrass” value ([1]; Postemergence, 31 g ai/ha) was 30, the “Plant response rating, Dallisgrass” value ([1]; Postemergence, 62 g ai/ha) was 50 and the “Plant response rating, Crabgrass, Naked” value ([2]; 8 g ai/ha, Preemergence) was 90. The “Plant response rating, Crabgrass, Naked” value ([2]; 16 g ai/ha, Preemergence) was 100, the “Plant response rating, Crabgrass, Naked” value ([2]; 31 g ai/ha, Preemergence) was 100 and the “Plant response rating, Crabgrass, Naked” value ([2]; 62 g ai/ha, Preemergence) was 100. The “Plant response rating, Crabgrass, Naked” value ([2]; Postemergence, 8 g ai/ha) was 40, the “Plant response rating, Crabgrass, Naked” value ([2]; Postemergence, 16 g ai/ha) was 60 and the “Plant response rating, Crabgrass, Naked” value ([2]; Postemergence, 31 g ai/ha) was 90. The “Plant response rating, Crabgrass, Naked” value ([2]; Postemergence, 62 g ai/ha) was 98, the “Plant response rating, Bermudagrass” value ([3]; 8 g ai/ha, Preemergence) was 75 and the “Plant response rating, Bermudagrass” value ([3]; 16 g ai/ha, Preemergence) was 100. For the same compound, the “Plant response rating, Bermudagrass” value ([3]; 31 g ai/ha, Preemergence) was 100, the “Plant response rating, Bermudagrass” value ([3]; 62 g ai/ha, Preemergence) was 100 and the “Plant response rating, Bermudagrass” value ([3]; Postemergence, 8 g ai/ha) was 40. The “Plant response rating, Bermudagrass” value ([3]; Postemergence, 16 g ai/ha) was 40, the “Plant response rating, Bermudagrass” value ([3]; Postemergence, 31 g ai/ha) was 70 and the “Plant response rating, Bermudagrass” value ([3]; Postemergence, 62 g ai/ha) was 90. For the same compound, the “Plant response rating, Itchgrass” value ([4]; 16 g ai/ha, Preemergence) was 65, the “Plant response rating, Itchgrass” value ([4]; 31 g ai/ha, Preemergence) was 75 and the “Plant response rating, Itchgrass” value ([4]; 62 g ai/ha, Preemergence) was 90. The “Plant response rating, Itchgrass” value ([4]; Postemergence, 8 g ai/ha) was 0, the “Plant response rating, Itchgrass” value ([4]; Postemergence, 16 g ai/ha) was 40 and the “Plant response rating, Itchgrass” value ([4]; Postemergence, 31 g ai/ha) was 50. The “Plant response rating, Itchgrass” value ([4]; Postemergence, 62 g ai/ha) was 60, the “Plant response rating, Chickweed” value ([5]; 8 g ai/ha) was 0 and the “Plant response rating, Chickweed” value ([5]; 16 g ai/ha) was 0. For the same compound, the “Plant response rating, Signalgrass” value ([6]; 16 g ai/ha, Preemergence) was 70, the “Plant response rating, Signalgrass” value ([6]; 31 g ai/ha, Preemergence) was 100 and the “Plant response rating, Signalgrass” value ([6]; 62 g ai/ha, Preemergence) was 100. The “Plant response rating, Signalgrass” value ([6]; Postemergence, 8 g ai/ha) was 10, the “Plant response rating, Signalgrass” value ([6]; Postemergence, 16 g ai/ha) was 50 and the “Plant response rating, Signalgrass” value ([6]; Postemergence, 31 g ai/ha) was 90. For the same compound, the “Plant response rating, Signalgrass” value ([6]; Postemergence, 62 g ai/ha) was 100, the “Plant response rating, Foxtail, Green” value ([7]; 8 g ai/ha, Preemergence) was 15 and the “Plant response rating, Foxtail, Green” value ([7]; 16 g ai/ha, Preemergence) was 60. The “Plant response rating, Foxtail, Green” value ([7]; 31 g ai/ha, Preemergence) was 95, the “Plant response rating, Foxtail, Green” value ([7]; 62 g ai/ha, Preemergence) was 100 and the “Plant response rating, Foxtail, Green” value ([7]; Postemergence, 8 g ai/ha) was 35. The “Plant response rating, Foxtail, Green” value ([7]; Postemergence, 16 g ai/ha) was 50, the “Plant response rating, Foxtail, Green” value ([7]; Postemergence, 31 g ai/ha) was 75 and the “Plant response rating, Foxtail, Green” value ([7]; Postemergence, 62 g ai/ha) was 75. The “Plant response rating, Barnyardgrass” value ([8]; 8 g ai/ha, Preemergence) was 80, the “Plant response rating, Barnyardgrass” value ([8]; 16 g ai/ha, Preemergence) was 95 and the “Plant response rating, Barnyardgrass” value ([8]; 31 g ai/ha, Preemergence) was 95. For the same compound, the “Plant response rating, Barnyardgrass” value ([8]; 62 g ai/ha, Preemergence) was 100, the “Plant response rating, Barnyardgrass” value ([8]; Postemergence, 8 g ai/ha) was 50 and the “Plant response rating, Barnyardgrass” value ([8]; Postemergence, 16 g ai/ha) was 50. The “Plant response rating, Barnyardgrass” value ([8]; Postemergence, 31 g ai/ha) was 95, the “Plant response rating, Barnyardgrass” value ([8]; Postemergence, 62 g ai/ha) was 100 and the “Plant response rating, Johnsongrass” value ([9]; 16 g ai/ha, Preemergence) was 75. For the same compound, the “Plant response rating, Johnsongrass” value ([9]; 31 g ai/ha, Preemergence) was 85, the “Plant response rating, Johnsongrass” value ([9]; 62 g ai/ha, Preemergence) was 95 and the “Plant response rating, Johnsongrass” value ([9]; Postemergence, 8 g ai/ha) was 35. For the same compound, the “Plant response rating, Johnsongrass” value ([9]; Postemergence, 16 g ai/ha) was 50, the “Plant response rating, Johnsongrass” value ([9]; Postemergence, 31 g ai/ha) was 75 and the “Plant response rating, Johnsongrass” value ([9]; Postemergence, 62 g ai/ha) was 95. For the same compound, the “Plant response rating, Bluegrass” value ([10]; 8 g ai/ha, Preemergence) was 0, the “Plant response rating, Bluegrass” value ([10]; 16 g ai/ha, Preemergence) was 0 and the “Plant response rating, Bluegrass” value ([10]; 31 g ai/ha, Preemergence) was 0. The “Plant response rating, Bluegrass” value ([10]; 62 g ai/ha, Preemergence) was 0, the “Plant response rating, Bluegrass” value ([10]; Postemergence, 8 g ai/ha) was 0 and the “Plant response rating, Bluegrass” value ([10]; Postemergence, 16 g ai/ha) was 0. The “Plant response rating, Bluegrass” value ([10]; Postemergence, 31 g ai/ha) was 0, the “Plant response rating, Bluegrass” value ([10]; Postemergence, 62 g ai/ha) was 0 and the “Plant response rating, Mallow” value ([11]; 16 g ai/ha, Preemergence) was 0. The “Plant response rating, Mallow” value ([11]; 31 g ai/ha, Preemergence) was 0, the “Plant response rating, Mallow” value ([11]; 62 g ai/ha, Preemergence) was 0 and the “Plant response rating, Mallow” value ([11]; Postemergence, 8 g ai/ha) was 0. The “Plant response rating, Mallow” value ([11]; Postemergence, 16 g ai/ha) was 0, the “Plant response rating, Mallow” value ([11]; Postemergence, 31 g ai/ha) was 0 and the “Plant response rating, Mallow” value ([11]; Postemergence, 62 g ai/ha) was 0.
